Here are results for 2 molecules from patent US11939327B2, “Heterocyclic compounds” (Takeda Pharmaceutical Company Limited, priority 2017, dated 2024).

Structures are written as SMILES.

The target of one assay is T1, human GluR1 flip (Homo sapiens, UniProt P42261).
T1 construct: expressed in transfected cells; host or cells: CHO-K1
Kind of assay: AMPA receptor function-enhancing activity using calcium influx as index (CHO-K1/GluR1 flip/stargazin-expressing cells). Conditions: CHO-K1, test compound 30 μM with 3 mM glutamic acid, 100% = 3 mM glutamic acid + 300 μM cyclothiazide, 0% = 3 mM glutamic acid alone, read-out: hGluR1 flip/30 μM (%). The class given is cell-based. The text has this:
Experimental Example 1 Measurement method of AMPA receptor function-enhancing activity of compound using calcium influx as index
(1) Construction of Expression Gene
Human GluR1 flip cDNA was amplified by PCR method using forward primer […] (SEQ ID NO: 1) and reverse primer […] (SEQ ID NO: 2) artificially synthesized using human brain-derived cDNA (BD Bioscience) as a template. The amplified product was digested with restriction enzymes EcoRI, NotI (TAKARA SHUZO CO. LTD.) and incorporated into the same site of pcDNA3.1(+) (Invitrogen) to construct pcDNA3.1(+)/human GluR1 flip gene. Human stargazin cDNA was amplified by PCR method using forward primer […] (SEQ ID NO: 3) and reverse primer […] (SEQ ID NO: 4) artificially synthesized using human hippocampus cDNA as a template. The amplified product was digested with restriction enzymes XhoI, BamHI (TAKARA SHUZO CO. LTD.) and incorporated into the same site of pcDNA3.1(−) (Invitrogen) to construct pcDNA3.1 Zeo(−)/human stargazing gene.
(2) Construction of GluR1 Flip/Stargazin Expressing Cell
CHO-K1 cells passaged in a culture medium (Ham's F12 medium (Invitrogen) added with 10% inactivated fetal bovine serum (Morgate) and penicillin, streptomycin (Invitrogen)) were detached using 0.05% trypsin and 0.53 mM EDTA (Invitrogen) diluted with D-PBS(−). The detached cells were suspended in a culture medium, and recovered by centrifugation at 1,000 rpm. The recovered cells were re-suspended in D-PBS(−) and added into 0.4 cm electroporation cuvette (BioRad). pcDNA3.1(+)/human GluR1 flip gene (5 μg) and pcDNA3.1 Zeo(−)/human stargazin gene (15 μg) were added, and introduced into CHO-K1 cells under the conditions of 950 μFd, […] and using Gene Pulser II (BioRad). The introduced cells were cultured overnight in a culture medium. The next day, using a selection medium (culture medium added with zeocin (Invitrogen) at 250 μg/mL), the cells were plated in a 96 well plate at 250 cells/well. The clones showing drug resistance were selected, and GluR1 flip/stargazin expression clones were selected by an assay method shown below using calcium influx as an index.
(3) Measurement Method of AMPA Receptor Function-Enhancing Activity of Compound, Using Calcium Influx as an Index
CHO-K1/GluR1 flip/stargazin-expressing cells were plated on a 384 well black bottom transparent plate, and cultured for 2 days in a CO2 incubator (SANYO ELECTRIC Co. Ltd.) at 37° C. The medium of the cell plate was removed. A calcium indicator (Calcium5 Assay Kit, Molecular Devices) was diluted with an assay buffer (HBSS (Thermo Fisher Scientific), 0.1% BSA (Merck Millipoer) and 10 mM HEPES (Thermo Fisher Scientific)), and 1.25 mM probenecid (Dojindo Laboratories) was added thereto. The mixture prepared above was added at 30 μL/well (100 μL/well in case of 96 wells) to the well, and the well was left standing in 37° C., CO2 incubator for 1 hr. The cell plate was set in CellLux (PerkinElmer), a mixture (15 μL) (50 μL/well in case of 96 wells) of […] glutamic acid (final concentration 3 mM) diluted with an assay buffer and a test compound (test compound concentration 30 μM) was added thereto, and variation in the amount of fluorescence was measured for 3 min. The variation of fluorescence level of a well added with final concentration 3 mM of glutamic acid and 300 μM cyclothiazide (TOCRIS) was defined as 100%, the variation of fluorescence level of a well added with final concentration 3 mM of glutamic acid alone was defined as 0%, and the activity of the compound was calculated by the following formula. activity (%)=(X−C)/(T−C)×100 • T: variation of fluorescence level of well added with final concentration 3 mM of glutamic acid and 300 μM cyclothiazide • C: variation of fluorescence level of well added with final concentration 3 mM of glutamic acid alone • X: variation of fluorescence level of well added with test compound

The test system of another assay is Long Evans rats. Kind of assay: Novel object recognition test. It is filed as in vivo, rat. The following applies: male Long Evans rats; for Novel Object Interaction (%): 1 mg/kg p.o. 1 hr before acquisition trial and 1 hr before retention trial, retention trial 48 hr after acquisition, mean ± standard error; for novel object interaction (result in words): 1 mg/kg p.o., versus 0 mg/kg. The text has this: Experimental Example 2 Novel Object Recognition Test
Male Long Evans rats were supplied by Japan SLC, and used at 7-week-old in the experiments. After arrival to the vivarium, animals were allowed a minimum of 1 week for acclimation. They were housed under a 12:12-h light/dark cycle in a temperature- and humidity-controlled laboratory and allowed food and water ad libitum.
A test compound was suspended in 0.5% methylcellulose in distilled water and orally administered (p.o.). All test compounds were dosed in a volume of 2 mL/kg body weight for rats.
(3) Novel Object Recognition Test
Novel object recognition test is a test system utilizing the novel object preference characteristics of rodents. This novel object recognition test consists of two trials, “acquisition trial” and “retention trial”, and, when an interval between these two trials is short, rodents spend a longer period for novel object exploration behaviors, and the preference dissipates as the interval gets longer. From this, the behavioral change in the novel object recognition test is considered to reflect the rodents' memory of the object during the acquisition trial. In this experimental example, the retention trial was carried out 48 hr after the acquisition trial. On the day before the test, for acclimation, Long-Evans rats were allowed to freely move about the test box (40×40×50 cm) for 10 minutes. On the test day, the rats were acclimated to the test room for about 1 hr prior to the test. The test compound (Compound A (Example 10), Compound B (Example 35), 1 mg/kg) were orally administered to the rats twice 1 hr before the acquisition trial and 1 hr before the retention trial. For the acquisition trial, two identical objects (A1, A2) were placed in the test box. The rats were put in the test box for 3 min, and the duration contacting each object was measured. The retention trial was carried out 48 hr after the acquisition trial. For the retention trial, the familiar object (A3) used for the acquisition trial and the novel object (B) different shape from A3 were placed in the test box. The rats were put in the test box for 3 min. The duration contacting each object in the acquisition trial and the retention trial, and the novel object interaction (%) was calculated. The novel object interaction (%) was expressed as (the duration contacting the novel object)/[(the duration contacting the novel object)+(the duration contacting the familiar object)]×100(%) at mean±standard error.

T1 sequence (P42261 19-906 isoform P42261-2 limits assumed): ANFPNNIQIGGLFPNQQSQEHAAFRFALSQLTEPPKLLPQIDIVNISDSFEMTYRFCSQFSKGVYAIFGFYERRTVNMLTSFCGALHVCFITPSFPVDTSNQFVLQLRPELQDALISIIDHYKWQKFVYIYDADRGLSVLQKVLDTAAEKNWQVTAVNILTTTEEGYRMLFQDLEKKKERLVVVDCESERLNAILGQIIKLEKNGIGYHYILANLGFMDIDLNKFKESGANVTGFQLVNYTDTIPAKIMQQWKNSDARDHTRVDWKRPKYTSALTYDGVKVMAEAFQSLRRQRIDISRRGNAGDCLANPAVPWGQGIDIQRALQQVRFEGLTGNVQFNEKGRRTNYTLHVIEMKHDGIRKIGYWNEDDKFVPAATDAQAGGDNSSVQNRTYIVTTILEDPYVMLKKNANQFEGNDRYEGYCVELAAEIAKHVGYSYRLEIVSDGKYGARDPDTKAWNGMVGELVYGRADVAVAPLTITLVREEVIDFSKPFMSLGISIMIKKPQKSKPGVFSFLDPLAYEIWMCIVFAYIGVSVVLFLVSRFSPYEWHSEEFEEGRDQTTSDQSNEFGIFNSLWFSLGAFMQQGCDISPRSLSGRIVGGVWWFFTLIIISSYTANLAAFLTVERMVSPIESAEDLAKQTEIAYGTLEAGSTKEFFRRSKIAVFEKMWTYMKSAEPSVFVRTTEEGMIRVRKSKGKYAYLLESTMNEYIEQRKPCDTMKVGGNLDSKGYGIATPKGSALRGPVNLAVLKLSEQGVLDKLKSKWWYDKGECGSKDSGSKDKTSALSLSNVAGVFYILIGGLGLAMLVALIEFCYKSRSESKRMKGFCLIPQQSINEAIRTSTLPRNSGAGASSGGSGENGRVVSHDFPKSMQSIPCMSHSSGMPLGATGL
T1 sequence (Q9Y698 whole entry partner): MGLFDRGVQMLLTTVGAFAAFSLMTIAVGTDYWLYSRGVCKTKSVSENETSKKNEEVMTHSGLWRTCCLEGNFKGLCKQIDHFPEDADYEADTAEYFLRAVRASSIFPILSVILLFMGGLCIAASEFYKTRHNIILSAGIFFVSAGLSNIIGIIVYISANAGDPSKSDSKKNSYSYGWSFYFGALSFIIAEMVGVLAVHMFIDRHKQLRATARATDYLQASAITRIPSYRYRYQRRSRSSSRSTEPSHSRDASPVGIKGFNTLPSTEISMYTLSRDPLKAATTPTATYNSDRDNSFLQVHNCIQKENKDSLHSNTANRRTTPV

Consider `O=C(c1ccc(-c2nccc3c2nc(C(F)(F)F)n3CC(F)F)cc1F)N1CCOCC1` [Example 10, (4-(1-(2,2-difluoroethyl)-2-(trifluoromethyl)-1H-imidazo[4,5-c]pyridin-4-yl)-2-fluorophenyl)(morpholin-4-yl)methanone], for which the activation at 30 µM at human GluR1 flip worked out at 90.5%. Also, in the assay with Long Evans rats, the “Novel Object Interaction (%)” value was determined as 56.32 ± 1.56% and the “novel object interaction (result in words)” value was “increased”.
In the same order, the values of `O=C(c1ncc(-c2cccc3c2nc(C(F)(F)F)n3CC(F)F)cc1F)N1CCOCC1` [Example 35, (5-(1-(2,2-difluoroethyl)-2-(trifluoromethyl)-1H-benzimidazol-4-yl)-3-fluoropyridin-2-yl)(morpholin-4-yl)methanone] are 81.2%, 61.28 ± 2.35% and “increased”.
